In the supplement of paper PMC6045584:
± gives the standard deviation of the averaged measurements.

How the values were obtained:
SOTRASTAURIN/AEB071 = compound: CN1CCN(c2nc(C3=C(c4c[nH]c5ccccc45)C(=O)NC3=O)c3ccccc3n2)CC1 [SOTRASTAURIN/AEB071]; test: surviving fraction relative to DMSO-only wells; higher = less growth inhibition; conditions: exposure time: 5 days
Procedure, shortened: (§1)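 Viability was scored with CellTiter-Glo luminescence and normalised to the median of DMSO-only wells as surviving fraction. Beforehand, log-phase tumour cell lines were seeded at 250–500 cells per well in 384-well plates, allowed 24 hours, and exposed continuously for five days to inhibitors at 0.5, 1, 5, 10, 50, 100, 500 and 1000 nM. Only lines whose three screens gave replicate Pearson r >0.7 and median Z' >0.3 were kept.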

TEMOZOLOMIDE = compound: Cn1nnc2c(C(N)=O)ncn2c1=O [TEMOZOLOMIDE]; test: as above; conditions: exposure time: 5 days
Procedure, shortened: as §1

Row | Test System | surviving fraction (SOTRASTAURIN/AEB071; 0.5 nM) | surviving fraction (SOTRASTAURIN/AEB071; 1 nM) | surviving fraction (SOTRASTAURIN/AEB071; 5 nM) | surviving fraction (SOTRASTAURIN/AEB071; 10 nM) | surviving fraction (SOTRASTAURIN/AEB071; 50 nM) | surviving fraction (SOTRASTAURIN/AEB071; 100 nM) | surviving fraction (SOTRASTAURIN/AEB071; 500 nM) | surviving fraction (SOTRASTAURIN/AEB071; 1000 nM) | surviving fraction (TEMOZOLOMIDE; 0.5 nM) | surviving fraction (TEMOZOLOMIDE; 1 nM) | surviving fraction (TEMOZOLOMIDE; 5 nM) | surviving fraction (TEMOZOLOMIDE; 10 nM) | surviving fraction (TEMOZOLOMIDE; 50 nM) | surviving fraction (TEMOZOLOMIDE; 100 nM) | surviving fraction (TEMOZOLOMIDE; 500 nM) | surviving fraction (TEMOZOLOMIDE; 1000 nM)
1 | SCC47 HEADNECK | 1.04 ± 0.046 | 1.12 ± 0.12 | 1.16 ± 0.062 | 1.13 ± 0.14 | 1.06 ± 0.07 | 1.08 ± 0.046 | 1 ± 0.031 | 1.05 ± 0.13 | 0.956 ± 0.035 | 1.06 ± 0.074 | 1.1 ± 0.035 | 1.12 ± 0.085 | 1.04 ± 0.11 | 1.22 ± 0.14 | 1.1 ± 0.06 | 1.14 ± 0.17
2 | SCC90 HEADNECK | 1.05 ± 0.063 | 0.997 ± 0.066 | 0.925 ± 0.099 | 1.01 ± 0.1 | 0.87 ± 0.037 | 0.875 ± 0.028 | 0.708 ± 0.033 | 0.676 ± 0.072 | 0.973 ± 0.039 | 1.16 ± 0.11 | 1.05 ± 0.053 | 1.02 ± 0.062 | 1.08 ± 0.073 | 1.06 ± 0.2 | 1.1 ± 0.088 | 1.01 ± 0.057
3 | SG27 HEADNECK | 1.1 ± 0.093 | 1.11 ± 0.04 | 0.984 ± 0.051 | 0.984 ± 0.1 | 1.13 ± 0.13 | 1.1 ± 0.041 | 1.15 ± 0.058 | 1.26 ± 0.1 | 1.13 ± 0.058 | 1.1 ± 0.11 | 1.02 ± 0.054 | 1.09 ± 0.019 | 1.04 ± 0.061 | 1.16 ± 0.14 | 1.22 ± 0.048 | 1.21 ± 0.15
4 | SG28 HEADNECK | 1.116 ± 0.011 | 1.107 ± 0.0035 | 0.956 ± 0.12 | 1.024 ± 0.0085 | 0.821 ± 0.039 | 0.79 ± 0.14 | 0.8065 ± 0.0078 | 0.843 ± 0.088 | 1.03 ± 0.044 | 1.18 ± 0.034 | 1.04 ± 0.013 | 1.1 ± 0.021 | 1.1 ± 0.087 | 1.05 ± 0.013 | 1.09 ± 0.14 | 1.09 ± 0.048
5 | SG31 HEADNECK | 1.28 ± 0.26 | 1 ± 0.12 | 1.25 ± 0.26 | 1.12 ± 0.23 | 0.935 ± 0.12 | 1.03 ± 0.12 | 1.11 ± 0.12 | 1.14 ± 0.032 | 0.991 ± 0.11 | 1.07 ± 0.18 | 1.01 ± 0.15 | 1.04 ± 0.013 | 0.922 ± 0.062 | 1.17 ± 0.52 | 1.17 ± 0.24 | 1.12 ± 0.12
6 | SG32 HEADNECK | 0.943 ± 0.088 | 1.13 ± 0.18 | 1.09 ± 0.22 | 1.05 ± 0.057 | 0.792 ± 0.084 | 0.698 ± 0.27 | 0.827 ± 0.13 | 0.795 ± 0.08 | 1.14 ± 0.019 | 1.44 ± 0.39 | 1.19 ± 0.12 | 1.37 ± 0.22 | 1.26 ± 0.071 | 1.13 ± 0.097 | 1.2 ± 0.18 | 1.67 ± 0.62
7 | SG43 HEADNECK | 1.21 ± 0.12 | 0.963 ± 0.1 | 0.92 ± 0.087 | 0.761 ± 0.09 | 0.961 ± 0.15 | 1.14 ± 0.21 | 1.31 ± 0.11 | 1.15 ± 0.088 | 1.11 ± 0.065 | 0.96 ± 0.1 | 0.768 ± 0.047 | 0.882 ± 0.087 | 0.742 ± 0.18 | 0.895 ± 0.24 | 0.895 ± 0.11 | 1.14 ± 0.46
8 | SIHA CERVIX | 0.988 ± 0.039 | 1 ± 0.12 | 1.12 ± 0.041 | 1.06 ± 0.1 | 0.935 ± 0.055 | 0.989 ± 0.0056 | 0.944 ± 0.048 | 0.849 ± 0.05 | 0.992 ± 0.024 | 0.996 ± 0.072 | 0.99 ± 0.06 | 1.06 ± 0.076 | 1.02 ± 0.021 | 1.06 ± 0.039 | 0.968 ± 0.044 | 1.02 ± 0.028
9 | SJSA1 BONE | 1.72 ± 0.087 | 1.64 ± 0.046 | 1.64 ± 0.092 | 1.56 ± 0.13 | 0.992 ± 0.068 | 1.13 ± 0.029 | 1.7 ± 0.041 | 0.205 ± 0.018 | 0.368 ± 0.017 | 1.72 ± 0.054 | 1.64 ± 0.088 | 1.5 ± 0.13 | 1.69 ± 0.041 | 1.64 ± 0.077 | 1.66 ± 0.084 | 1.7 ± 0.11
10 | SKBR3 BREAST | 1.12 ± 0.05 | 0.9717 ± 0.0031 | 1 ± 0.068 | 1.07 ± 0.15 | 0.782 ± 0.085 | 0.84 ± 0.11 | 0.818 ± 0.086 | 0.849 ± 0.12 | 1.1 ± 0.052 | 1.11 ± 0.058 | 1.06 ± 0.082 | 1.06 ± 0.069 | 0.983 ± 0.061 | 1.07 ± 0.13 | 1.13 ± 0.04 | 1.07 ± 0.055
11 | SNU475 LIVER | 0.996 ± 0.06 | 1.04 ± 0.055 | 1.01 ± 0.042 | 1.03 ± 0.034 | 0.9037 ± 0.0085 | 0.873 ± 0.029 | 0.932 ± 0.04 | 0.908 ± 0.046 | 1.004 ± 0.0081 | 1.01 ± 0.025 | 1.01 ± 0.051 | 1.04 ± 0.036 | 1.01 ± 0.034 | 1.06 ± 0.047 | 1.05 ± 0.053 | 1.03 ± 0.022
12 | SUM44 BREAST | 1.03 ± 0.23 | 1.04 ± 0.21 | 1.13 ± 0.2 | 1.03 ± 0.19 | 0.895 ± 0.057 | 0.962 ± 0.054 | 1.02 ± 0.1 | 1.03 ± 0.092 | 1.16 ± 0.26 | 1.19 ± 0.22 | 1.24 ± 0.23 | 1.33 ± 0.5 | 1.19 ± 0.21 | 1.32 ± 0.33 | 1.3 ± 0.28 | 1.3 ± 0.26
13 | SUM149 BREAST | 0.923 ± 0.17 | 0.901 ± 0.054 | 0.892 ± 0.11 | 0.896 ± 0.088 | 0.932 ± 0.1 | 0.851 ± 0.025 | 0.893 ± 0.062 | 0.882 ± 0.031 | 1.06 ± 0.11 | 1.1 ± 0.067 | 1.1 ± 0.029 | 1.1 ± 0.12 | 1.01 ± 0.056 | 1.16 ± 0.12 | 1.1 ± 0.096 | 1.03 ± 0.022
14 | SUM149.B1*.S BREAST | 1.11 ± 0.028 | 1.08 ± 0.06 | 1.06 ± 0.093 | 1.07 ± 0.061 | 1.11 ± 0.059 | 1.04 ± 0.024 | 1.04 ± 0.1 | 1.03 ± 0.042 | 1 ± 0.026 | 1.05 ± 0.023 | 1.08 ± 0.062 | 1.11 ± 0.038 | 1.07 ± 0.067 | 1.13 ± 0.073 | 1.07 ± 0.023 | 1.15 ± 0.085
15 | SUM159 BREAST | 1.1 ± 0.02 | 1.12 ± 0.028 | 1.11 ± 0.016 | 1.08 ± 0.026 | 1.06 ± 0.021 | 1.09 ± 0.015 | 1.07 ± 0.028 | 1.04 ± 0.021 | 1.01 ± 0.057 | 1.06 ± 0.035 | 1.039 ± 0.0092 | 1.07 ± 0.024 | 1.02 ± 0.021 | 1.05 ± 0.021 | 1.04 ± 0.029 | 1.06 ± 0.0095
16 | SYO1 SYNOVIAL | 1.02 ± 0.053 | 1.01 ± 0.058 | 1.04 ± 0.063 | 0.991 ± 0.068 | 0.869 ± 0.031 | 0.875 ± 0.021 | 0.891 ± 0.038 | 0.909 ± 0.038 | 0.971 ± 0.041 | 1.04 ± 0.064 | 0.965 ± 0.0099 | 1.01 ± 0.048 | 0.986 ± 0.059 | 1.01 ± 0.048 | 0.99733 ± 0.00067 | 1.03 ± 0.016
17 | T47D BREAST | 1.03 ± 0.05 | 1.042 ± 0.0044 | 0.988 ± 0.034 | 1.03 ± 0.038 | 1.03 ± 0.05 | 1.05 ± 0.014 | 1.1 ± 0.028 | 1.09 ± 0.022 | 0.982 ± 0.011 | 1.057 ± 0.0064 | 1.04 ± 0.034 | 1.04 ± 0.055 | 1.06 ± 0.053 | 1.1 ± 0.018 | 1.08 ± 0.032 | 1.09 ± 0.025
18 | U2OS BONE | 1.04 ± 0.058 | 1.008 ± 0.0065 | 1.11 ± 0.037 | 1.044 ± 0.0091 | 1.03 ± 0.051 | 1.02 ± 0.045 | 0.939 ± 0.027 | 0.929 ± 0.029 | 0.988 ± 0.017 | 0.988 ± 0.034 | 1.04 ± 0.022 | 1.02 ± 0.045 | 1.06 ± 0.029 | 1.06 ± 0.023 | 1.02 ± 0.028 | 1.01 ± 0.023
19 | VCAP PROSTATE | 1.08 ± 0.18 | 1.01 ± 0.11 | 1.08 ± 0.06 | 1.03 ± 0.096 | 0.883 ± 0.1 | 1.1 ± 0.052 | 0.941 ± 0.085 | 0.931 ± 0.13 | 0.913 ± 0.1 | 1.09 ± 0.089 | 1.04 ± 0.13 | 1.04 ± 0.082 | 0.967 ± 0.051 | 1.1 ± 0.09 | 0.991 ± 0.039 | 1.08 ± 0.093
20 | VP229 BREAST | 1.07 ± 0.054 | 1.23 ± 0.1 | 0.995 ± 0.023 | 1.04 ± 0.13 | 0.952 ± 0.084 | 0.812 ± 0.059 | 0.956 ± 0.13 | 0.856 ± 0.19 | 1.18 ± 0.11 | 1.18 ± 0.15 | 1.07 ± 0.17 | 1.23 ± 0.06 | 1.12 ± 0.073 | 1.26 ± 0.21 | 1.15 ± 0.15 | 1.15 ± 0.16
21 | YAMATO SYNOVIAL | 1.14 ± 0.068 | 1.23 ± 0.018 | 1.28 ± 0.13 | 1.38 ± 0.11 | 0.962 ± 0.096 | 0.968 ± 0.032 | 0.945 ± 0.024 | 0.96 ± 0.059 | 1.14 ± 0.05 | 1.16 ± 0.055 | 1.27 ± 0.13 | 1.35 ± 0.076 | 1.22 ± 0.083 | 1.4 ± 0.1 | 1.31 ± 0.12 | 1.38 ± 0.095
22 | ZR751 BREAST | 1.19 ± 0.11 | 1.3 ± 0.22 | 1.1 ± 0.15 | 1.16 ± 0.15 | 1.07 ± 0.092 | 1.1 ± 0.039 | 0.983 ± 0.15 | 1 ± 0.12 | 0.95 ± 0.12 | 0.953 ± 0.032 | 0.981 ± 0.034 | 0.964 ± 0.09 | 0.987 ± 0.15 | 1.04 ± 0.11 | 0.918 ± 0.11 | 1.05 ± 0.06
